Experimental data from patent publication US20220107246A1, “NONCOVALENT TAGS AND RELATED METHODS FOR CYTOSOLIC DELIVERY OF MACROBIOMOLECULES” (University of Washington, priority 2019, published 2022).
“Also recorded” adds a separate entry of the source.

Assays:
[1] = test system: peptidylprolyl isomerase B (PPIB) mRNA; experiment: siRNA delivery and real time RT PCR (PPIB mRNA knockdown in PC-3 cells); format: cell-based; settings: siRNA complexed with tag, real-time PCR
Protocol: A small library of 14 chemicals that represent various lipophilicities while sharing a carboxylic acid group for easy conjugation with ethidium was screened. These hydrophobic compounds were chemically linked to ethidium via a hexacarbon (C6) linker. The resulting small-molecule tags were mixed with a model siRNA sequence against peptidylprolyl isomerase B (PPIB) and tested on a prostate tumor cell line, PC-3, for RNAi.
PC-3 cells were seeded in 24-well plate at density of 5,000 cells per well. […] Total RNA was isolated from the cell monolayer using Trizol reagent (Invitrogen) according to the manufacturer's protocol. 200 nanograms of RNA was converted to cDNA using random hexamer primer and MultiScribe Reverse Transcriptase Reagent (Applied Biosystems, Inc., Branchburg, N.J.). 100 nanograms of cDNA was amplified by SensiFast SYBR kit (Bioline, Taunton, Mass.) on a Chromo4™ Real-Time system (Bio-Rad, Hercules, Calif.). The primers used for PPIB amplification were 5′-[…]-3′ (forward primer; SEQ ID NO:6) and 5′-[…]-3′ (reverse primer; SEQ ID NO:7). Primers for detection of 18s were 5′-[…]-3′ (forward primer; SEQ ID NO:8) and 5′-[…]-3′ (reverse primer; SEQ ID NO:9).

siRNA [2] = experiment: Intercalation into siRNA monitored by fluorescence activation; format: binding; settings: for intercalation of tag into siRNA (fluorescence enhancement): compared to tag 5; for fluorescence activation upon intercalation into siRNA: compared with DNA (positive control)
Protocol: To test this new concept of cytosolic delivery, a conjugation-free methodology was investigated that incorporated small chemical tags to transform siRNA sufficiently hydrophobic, membrane-permeant, and self-deliverable. […] For a proof of concept, a number of existing oligonucleotide intercalators were tested, due to their potential to non-covalently attach the lipophilic moiety to siRNA. Although DNA intercalating dyes are well-studied and broadly available, selection of dsRNA intercalators is limited. […] DNA intercalating dyes apply a stretching force thus may or may not work on siRNA. Eight DNA intercalating dyes (molecular structures shown in FIG. 7) were evaluated utilizing a very convenient feature of these dyes, fluorescence activation upon intercalation into oligonucleotides. […] Therefore, ethidium was used in the following studies.
After 5-minute incubation, the mixture was diluted to 100 μL and the fluorescence was measured with the microplate reader. The fluorescence increment (J. B. Le Pecq, et al., DNA polyintercalating drugs: DNA binding of diacridine derivatives, Proc Natl Acad Sci USA 72(8) (1975) 2915-9; B. Gaugain, et al., DNA Bifunctional intercalators. 2. Fluorescence properties and DNA binding interaction of an ethidium homodimer and an acridine ethidium heterodimer, Biochemistry 17(24) (1978) 5078-88, each of which is incorporated herein by reference in its entirety), ΔIF, is the difference of fluorescence intensity of the tags in the presence or absence of siRNA.

actin in HeLa cells = experiment: F-actin labeling in live cells using LifeAct-GFP; format: cell-based
Protocol: Lastly, two applications that should have a major impact on biology and medicine, immunofluorescence in live cells, and delivery of therapeutic proteins inside cells were assessed for compatibility with the disclosed tag approach for cytosolic delivery. Immunofluorescence, one of the most common techniques in biological and medical research, is currently used to profile cell surface markers on live cells (e.g., many flow cytometry studies) missing all the key cell signaling nodes inside cells. Alternatively, immunofluorescence is currently used on fixed cells, missing the temporal dynamics of active cell signaling that determines cell fate, behavior, communications, and growth. […] Briefly, HeLa cells were incubated with cholesterol-tagged LifeAct-GFP or LifeAct-GFP alone and the cells were imaged. […] To confirm the labeling specificity, cells were pretreated with cytochalasin-D before incubating with LifeAct-Tag.
HeLa cells were seeded onto glass-bottom dishes. After one-day of culturing, cells were incubated with fresh media containing tagged LifeAct-GFP for 4 h at 37° C., followed by washing and counterstaining Hoechst 33258. The cells were imaged on an Olympus fluorescence microscope equipped with a true-color CCD, Qcolor 5.

siRNA [3] = experiment: Gel electrophoresis of siRNA with intercalators; settings: high degree of intercalation
Excerpt: FIGS. 2A-2H illustrate tag design and characterizations. (FIG. 2A) Intercalation of conventional DNA intercalators into siRNA monitored by fluorescence activation. Ethidium and acridinium show similar fluorescence activation in both DNA and RNA, unlike the others. (FIG. 2B) Gel electrophoresis of siRNA with acridinium and ethidium at low and high degree of intercalation. […] (FIG. 2C) Screening hydrophobic compounds (after linking with ethidium) for mRNA (PPIB) knockdown in PC-3 cells. The numbers represent the compounds illustrated in FIG. 2D. Steroids such as cholesterol and stigmasterol offer the highest RNAi efficiency. (FIG. 2D) Molecular structures of the 14 exemplary chemical tags tested in the current study. The hydrophobic compounds are linked to ethidium via a C6 spacer. (FIG. 2E) Dose response of gene knockdown using siRNA tagged with ethidium-cholesterol (left) in PC-3 cells. […]
To test this new concept of cytosolic delivery, a conjugation-free methodology was investigated that incorporated small chemical tags to transform siRNA sufficiently hydrophobic, membrane-permeant, and self-deliverable. […] Eight DNA intercalating dyes (molecular structures shown in FIG. 7) were evaluated utilizing a very convenient feature of these dyes, fluorescence activation upon intercalation into oligonucleotides. […]

[4] = test system: PC-3, MDA-MB-231, SK-BR-3, DU-145, KB, and HEK-293T; experiment: Cellular delivery of aprotinin-tag complex in additional cell types; format: cell-based; settings: protein-tag complex; independent of the cell lines
Protocol: To further rule out the scenario that the tagged proteins initially enter cells via endocytosis followed by an efficient endosomal escape, the confocal microscopy experiment were performed again using the small protein, aprotinin, at 4° C., a temperature that blocks endocytic membrane trafficking. […] To evaluate the generality of this protein tagging technology, it was tested using […] additional cell types besides HeLa cells (i.e., PC-3, MDA-MB-231, SK-BR-3, DU-145, KB, and HEK-293T). Cells exposed to protein (aprotinin)-tag complex and then stained for protinin and WGA to show the cell boundary. […] Perhaps more importantly, protein transfection directly into the cytosol was also achieved in further experiments of primary cells including human adipose-derived stem cells, primary human dermal fibroblasts, and primary human umbilical vein endothelial cells (HUVEC) (not shown).
Cells were seeded on glass-bottom dishes (poly-D-lysine treated, MatTek Corp.) one day before the experiments. The cell monolayer was washed once with serum-free RPMI 1640 media and treated with 2 mL of RPMI 1640 media containing the tagged protein at a final concentration of 1 μM for 2 h. In the end, the cells were counter-stained with Hoechst 33342 and Alexa Fluor® 594 labeled Wheat Germ Agglutinin (WGA-AF594), respectively. […]

HeLa cells = experiment: Cellular delivery of tagged proteins, confocal microscopy; format: cell-based; settings: for intracellular fluorescence pattern of cholesterol-tagged protein: protein tagged with CB-cholesterol tag
Protocol: Purified Coomassie blue-cholesterol tag powder was reconstituted with ethanol/water (v/v: 4/1) to a concentration of 1.6 mM and stored at 4° C. as a stock. Before tagging, the concentration of all the protein solutions was diluted to 25 μM. […] The mixture was quickly mixed by pipetting. The mixture was incubated in a water bath (37° C.) for 8 min and sonicated in an ultrasonic water bath for 30 seconds. After another round of 8-min water bath incubation at 37° C., the protein was ready for delivery.
Cells were seeded on glass-bottom dishes (poly-D-lysine treated, MatTek Corp.) one day before the experiments. The cell monolayer was washed once with serum-free RPMI 1640 media and treated with 2 mL of RPMI 1640 media containing the tagged protein at a final concentration of 1 μM for 2 h. In the end, the cells were counter-stained with Hoechst 33342 and Alexa Fluor® 594 labeled Wheat Germ Agglutinin (WGA-AF594), respectively. The cells were washed three times with RPMI 1640 and imaged on a Zeiss LSM 710 microscope.
To study the delivery effect at low temperature (4° C.), cell monolayers were pre-equilibrated with cold media (RPMI 1640) for 10 minutes at 4° C. and then treated with the cold solution of tagged protein for 3 h. The cells were washed with cold media and imaged immediately.

Compound: 3,8-bis(tert-butyloxycarbonylamino)-5-(6-L-argininylcarbonylamino-hexyl)-6-phenylphenanthridine [tag 4]
- RNAi effect (PPIB mRNA knockdown), tag screening [1]: no or low effect

Compound: 3,8-bis(tert-butyloxycarbonylamino)-5-(6-L-histinylcarbonylamino-hexyl)-6-phenylphenanthridine [tag 3]
- RNAi effect (PPIB mRNA knockdown), tag screening [1]: no or low effect

Compound: 3,8-bis(tert-butyloxycarbonylamino)-5-(6-L-leucinylcarbonylamino-hexyl)-6-phenylphenanthridine [tag 2]
- RNAi effect (PPIB mRNA knockdown), tag screening [1]: no or low effect

Compound: 3,8-bis(tert-butyloxycarbonylamino)-5-(6-caprylcarbonylamino-hexyl)-6-phenylphenanthridine [tag 7]
- RNAi effect (PPIB mRNA knockdown), tag screening [1]: no or low effect

Compound: 3,8-bis(tert-butyloxycarbonylamino)-5-(6-cerotylcarbonylamino-hexyl)-6-phenylphenanthridine [tag 9]
- intercalation of tag into siRNA (fluorescence enhancement) (siRNA [2]): minor fluorescence enhancement; also recorded: failed to intercalate into siRNA
- RNAi effect (PPIB mRNA knockdown), tag screening [1]: failed to lower the PPIB mRNA level

Compound: 3,8-bis(tert-butyloxycarbonylamino)-5-(6-chloroquinecarboylamino-hexyl)-6-phenylphenanthridine [tag 13]
- RNAi effect (PPIB mRNA knockdown), tag screening [1]: no or low effect

Compound: 3,8-bis(tert-butyloxycarbonylamino)-5-(6-cholesterylcarbonylamino-hexyl)-6-phenylphenanthridine [tag 5]
- RNAi effect (PPIB mRNA knockdown), tag screening [1]: significant RNAi effect

Compound: 3,8-bis(tert-butyloxycarbonylamino)-5-(6-pentadecylcarbonylamino-hexyl)-6-phenylphenanthridine [tag 8]
- RNAi effect (PPIB mRNA knockdown), tag screening [1]: no or low effect

Compound: 3,8-bis(tert-butyloxycarbonylamino)-5-(6-stigmasterylcarbonylamino-hexyl)-6-phenylphenanthridine [tag 6]
- RNAi effect (PPIB mRNA knockdown), tag screening [1]: significant RNAi effect

Compound: 3,8-bis(tert-butyloxycarbonylamino)-5-[6-(1,2-dipalmitin)-carboylamino-hexyl]-6-phenylphenanthridine [tag 14]
- intercalation of tag into siRNA (fluorescence enhancement) (siRNA [2]): minor fluorescence enhancement; also recorded: failed to intercalate into siRNA
- RNAi effect (PPIB mRNA knockdown), tag screening [1]: no RNAi effect

Compound: C=C1[C@@H](C)[C@H]2[C@H](Cc3ccccc3)NC(=O)[C@]23[C@H](OC(C)=O)/C=C/[C@@](C)(O)C(=O)[C@@H](C)C/C=C/[C@H]3[C@@H]1O [cytochalasin-D, reference compound]
- actin filament structure after pretreatment (actin in HeLa cells; cells pretreated before incubating with LifeAct-Tag): completely disrupted

Compound: CC[n+]1c(-c2ccccc2)c2cc(N)ccc2c2ccc(N)cc21 [ethidium, reference compound]
- fluorescence activation upon intercalation into siRNA (siRNA [2]): strong binding with siRNA
- unwinding of siRNA duplex (siRNA [3]): does not

Compound: Coomassie blue, dicholest carbamyl 3-(3-propyl dimethyl amino)propyl sulfonamide [cholesterol tag]
- imaging quality of delivered LifeAct-GFP (actin in HeLa cells; same LifeAct-GFP concentration): significantly better contrast

Compound: acridinium [reference compound]
- fluorescence activation upon intercalation into siRNA (siRNA [2]): strong binding with siRNA
- unwinding of siRNA duplex (siRNA [3]): unwound the siRNA double helix

Compound: aprotinin
- cytosolic delivery in additional cell types [4]: Efficient cytosolic delivery
- intracellular fluorescence pattern of cholesterol-tagged protein (HeLa cells; HeLa cells): bright and homogeneous fluorescence intracellular distribution
- intracellular fluorescence pattern without the cholesterol tag (HeLa cells; HeLa cells, same condition, no tag): only a few punctate fluorescent spots
- uptake by cells at 4° C. (HeLa cells; low tag/protein ratio): virtually confined to the cell membrane
- uptake by cells at 4° C. (HeLa cells; optimal tag/aprotinin ratio): bright and homogeneous intracellular fluorescence
- uptake by cells at 4° C. (HeLa cells; without the tag): negligible

Compound: lysozyme: protein, 15 kDa, fluorescently labeled cargo
- intracellular fluorescence pattern of cholesterol-tagged protein (HeLa cells; HeLa cells): diffused distribution while having a few punctate bright spots
- intracellular fluorescence distribution (HeLa cells; tag:protein molar ratio 1:1): only punctate intracellular fluorescence distribution
- intracellular fluorescence distribution (HeLa cells; tag:protein molar ratio 3:1): only punctate intracellular fluorescence distribution
- intracellular fluorescence distribution (HeLa cells; tag:protein molar ratio 6:1): diffused fluorescence signal started to appear
- intracellular fluorescence distribution (HeLa cells; tag:protein molar ratio 8:1): significant direct membrane permeation
